This note sets out measurements from patent US6858627B2, “Glucocorticoid mimetics, methods of making them, pharmaceutical compositions, and uses thereof” (Boehringer Ingelheim Pharmaceuticals, Inc., priority 2002, dated 2005).

Experiment [1] deals with glucocorticoid receptor. Put plainly: Glucocorticoid receptor cell assays, antagonist activity. The format is cell-based. The note with it: assay not given. The method, then: B. Glucocorticoid Receptor Cell Assays
Evaluation of agonist or antagonist activity of compounds binding to the glucocorticoid receptor may be determined by any of the assays.
3. Modulation of Tyrosine Aminotransferase (TAT) Induction in Rat Hepatoma Cells
Testing of compounds for agonist or antagonist activity in induction of tyrosine aminotransferase (TAT) in rat hepatoma cells.
H4-II-E-C3 cells were incubated overnight in 96 well plates (20,000 cells/100 μL/well) in MEM medium containing 10% heat inactivated FBS and 1% nonessential amino acids. On the next day, cells were stimulated with the indicated concentrations of dexamethasone or test compound (dissolved in DMSO, final DMSO concentration 0.2%) for 18 hours. Control cells were treated with 0.2% DMSO. After 18 hours, the cells were lysed in a buffer containing 0.1% Triton X-100 and the TAT activity was measured in a photometric assay using tyrosine and alpha-ketoglutarate as substrates. […]
Cells were cultured overnight in DMEM medium without phenol red, supplemented with 3% CCS (charcoal treated calf serum) and then transferred to 96 well plates (15,000 cells/100 μL/well). […] After 18 hours, the cells were lysed with cell lysis reagent (Promega, Cat. No. E1531), luciferase assay reagent (Promega, Cat. No. E1501) was added and the glow luminescence was measured using a luminometer (BMG, Offenburg). […]

Experiment [2] relates to glucocorticoid receptor. Put plainly: Glucocorticoid receptor function, one or more of the above assays (binding and cell assays). The format is cell-based. The settings on record: in one or more of the above assays; assay not given. Here is the method: Compounds of the invention were evaluated for binding to the steroid receptor by a fluorescence polarization competitive binding assay. Detailed descriptions for preparation of recombinant glucocorticoid receptor (GR) complex used in the assay is described in U.S. Patent Application Publication No. 2003/0,017,503, filed May 20, 2002, and the corresponding U.S. provisional application No. 60/291,877, filed May 18, 2001, each of which is incorporated herein by reference in its entirety. Preparation of the tetramethyl rhodamine (TAMRA)-labeled dexamethasone probe was accomplished using a standard literature procedure (M. Pons et al., J. Steroid Biochem., 1985, 22, pp. 267-273).
This assay uses fluorescence polarization (FP) to quantitate the ability of test compounds to compete with tetramethyl rhodamine (TAMRA)-labeled dexamethasone for binding to a human glucocorticoid receptor (GR) complex prepared from an insect expression system. […]
The binding reactions were incubated for 1 hour at room temperature and then read for fluorescence polarization in the LJL Analyst set to 550 nm excitation and 580 nm emission, with the Rhodamine 561 dichroic mirror installed. IC50 values were determined by iterative non-linear curve fitting of the FP signal data to a 4-parameter logistic equation. […]

`C=CCOC(C)C1=CC(C)(C)Nc2ccc(-c3ccccc3OC)cc21` (stereo not drawn) [4-(1-Allyloxyethyl)-6-(2-methoxyphenyl)-2,2-dimethyl-1,2-dihydroquinoline]: in experiment [1], the “activity as antagonists in cellular assays” value is given as “potent activity as antagonists”. Turning to `C=CCOC(C)C1=CC(C)(C)Nc2ccc(-c3cc(F)ccc3OC)cc21` (stereo not drawn) [4-(1-Allyloxyethyl)-6-(5-fluoro-2-methoxyphenyl)-2,2-dimethyl-1,2-dihydroquinoline], in experiment [2], the “activity as an agonist of the glucocorticoid receptor function” value is recorded as “activity as an agonist”.

On to `C=CCSCC1=CC(C)(C)Nc2ccc(-c3ccccc3OC)cc21` [4-Allylsulfanylmethyl-6-(2-methoxyphenyl)-2,2-dimethyl-1,2-dihydroquinoline], for which the “activity as antagonists in cellular assays” value in experiment [1] is given as “potent activity as antagonists”.
